Test results: patent publication US20230135093A1, “TRIAZOLYL DERIVATIVES AS GABA A ALPHA5 PAM” (Hoffmann-La Roche Inc., priority 2020, published 2023)

What was measured:
h-GABA-A α5β3γ2 [1] = target: T1, h-GABA-A α5β3γ2 (Homo sapiens, UniProt P18507+P31644); experiment: Two-electrode voltage clamp electrophysiology in Xenopus oocytes expressing GABAA receptors (modulation of GABA EC20 current); assay type: cell-based; details: Table 1; for Efficacy (GABA) %: % modulation of GABA EC20 = 100*(Fold increase-1); for Fold increase h-GABA-A α5β3γ2 oocyte: Xenopus oocytes, GABA EC20, test compound at approximatively 30 fold its Ki
T1 construct: expressed in transfected cells; host or cells: Xenopus laevis oocytes, micro-injected with subunit RNA
How it was run: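 GABA EC20 currents in human α5β3γ2-expressing Xenopus oocytes, voltage-clamped at −80 mV (room temperature, pH 7.4), measured with and without compound at ~30× Ki applied 0.5 min into the second GABA pulse. % modulation = 100×(fold increase−1), taken from the extremum of the current ratio trace; at least 3 oocytes per concentration.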

h-GABA-A α5β3γ2 [2] = target: T1, h-GABA-A α5β3γ2; experiment: [3H]flumazenil competition binding assay on membranes of HEK293 cells expressing GABAA receptors; details: Table 1; displacement of [3H]-Flumazenil (0.5 nM), HEK293 cells expressing human receptors, means of two determinations
How it was run: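 Competition for [3H]flumazenil (0.5 nM for α5 subunits) was measured at equilibrium (1 h, 4 °C, Krebs-tris buffer pH 7.5) on transiently transfected HEK293 membranes bearing human α5β3γ2 receptors, with 10^−5 M diazepam defining nonspecific binding. Ki values were derived from filtration and scintillation counting, averaged over duplicates.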

Structure (SMILES)	Efficacy (GABA) % (h-GABA-A α5β3γ2 [1]) [%]	Fold increase h-GABA-A α5β3γ2 oocyte (h-GABA-A α5β3γ2 [1])	Ki (h-GABA-A α5β3γ2 [2]) [nM]
COc1cc(-c2cnn(Cc3c(-c4ccc(C)nc4)nnn3C)c(=O)c2)ccn1 [Example 81, 5-(2-methoxy-4-pyridyl)-2-((3-methyl-5-(6-methyl-3-pyridyl)triazol-4-yl)methyl)pyridazin-3-one]	110	2.1	19.9
COc1ncc(-c2cnn(Cc3c(-c4ccc(C)nc4)nnn3C)c(=O)c2)cc1Cl [Example 82, 5-(5-chloro-6-methoxy-3-pyridyl)-2-((3-methyl-5-(6-methyl-3-pyridyl)triazol-4-yl)methyl)pyridazin-3-one]	236	3.36	31
Cn1nnc(-c2ccc(C(F)(F)F)cc2F)c1Cn1ncc(N2CC(Oc3cccnn3)C2)cc1=O [Example 83, 2-[[5-[2-fluoro-4-(trifluoromethyl)phenyl]-3-methyl-triazol-4-yl]methyl]-5-(3-pyridazin-3-yloxyazetidin-1-yl)pyridazin-3-one]	108	2.08	14.7
Cn1nnc(-c2ccc(C(F)(F)F)cc2F)c1Cn1ncc(N2CC(Oc3ccccn3)C2)cc1=O [Example 84, 2-[[5-[2-fluoro-4-(trifluoromethyl)phenyl]-3-methyl-triazol-4-yl]methyl]-5-[3-(2-pyridyloxy)azetidin-1-yl]pyridazin-3-one]	73	1.73	10.2
CCn1nnc(-c2ccc(Cl)cc2F)c1Cn1ncc(N2CC(OC3CCC3)C2)cc1=O [Example 85, 2-[[5-(4-chloro-2-fluoro-phenyl)-3-ethyl-triazol-4-yl]methyl]-5-[3-(cyclobutoxy)azetidin-1-yl]pyridazin-3-one]	143	2.43	18.5
CCn1nnc(-c2ccc(Cl)cc2F)c1Cn1ncc(N2CC(OCC(F)F)C2)cc1=O [Example 86, 2-[[5-(4-chloro-2-fluoro-phenyl)-3-ethyl-triazol-4-yl]methyl]-5-[3-(2,2-difluoro-ethoxy)azetidin-1-yl]pyridazin-3-one]	136	2.36	10.8
CCn1nnc(-c2ccc(Cl)cc2F)c1Cn1ncc(N2CC(OCC(F)(F)F)C2)cc1=O [Example 87, 2-[[5-(4-chloro-2-fluoro-phenyl)-3-ethyl-triazol-4-yl]methyl]-5-[3-(2,2,2-trifluoro-ethoxy)azetidin-1-yl]pyridazin-3-one]	115	2.15	12.5
CCn1nnc(-c2ccc(Cl)cc2F)c1Cn1ncc(N2CC(OC(F)F)C2)cc1=O [Example 88, 2-[[5-(4-chloro-2-fluoro-phenyl)-3-ethyl-triazol-4-yl]methyl]-5-[3-(difluoromethoxy)azetidin-1-yl]pyridazin-3-one]	126	2.26	7
Cn1nnc(-c2ccc(C(F)(F)F)cc2F)c1Cn1ncc(N2CC(Oc3cnccn3)C2)cc1=O [Example 89, 2-[[5-[2-fluoro-4-(trifluoromethyl)phenyl]-3-methyl-triazol-4-yl]methyl]-5-(3-pyrazin-2-yloxyazetidin-1-yl)pyridazin-3-one]	76	1.76	9.3
CCn1nnc(-c2ccc(Cl)cc2F)c1Cn1ncc(N2CC(OC(C)C)C2)cc1=O [Example 90, 2-[[5-(4-chloro-2-fluoro-phenyl)-3-ethyl-triazol-4-yl]methyl]-5-(3-isopropoxyazetidin-1-yl)pyridazin-3-one]	96	1.96	19.4
CCOC1CN(c2cnn(Cc3c(-c4ccc(Cl)cc4F)nnn3CC)c(=O)c2)C1 [Example 91, 2-[[5-(4-chloro-2-fluoro-phenyl)-3-ethyl-triazol-4-yl]methyl]-5-(3-ethoxyazetidin-1-yl)pyridazin-3-one]	128	2.28	18.2
CCn1nnc(-c2ccc(Cl)cc2F)c1Cn1ncc(N2CCN(C(C)C)[C@@H](C)C2)cc1=O [Example 92, 2-[[5-(4-chloro-2-fluoro-phenyl)-3-ethyl-triazol-4-yl]methyl]-5-[(3S)-4-isopropyl-3-methyl-piperazin-1-yl]pyridazin-3-one]	159	2.59	5.6
Cn1nnc(-c2ccc(C(F)(F)F)cc2F)c1Cn1ncc(N2CC(Oc3ccc(Cl)nc3)C2)cc1=O [Example 93, 5-[3-[(6-chloro-3-pyridyl)oxy]azetidin-1-yl]-2-[[5-[2-fluoro-4-(trifluoromethyl)phenyl]-3-methyl-triazol-4-yl]methyl]pyridazin-3-one]	79	1.79	9.4
CC(C)N1CCN(c2cnn(Cc3c(-c4ccc(C(F)(F)F)cc4F)nnn3C)c(=O)c2)C[C@@H]1C [Example 94, 2-[[5-[2-fluoro-4-(trifluoromethyl)phenyl]-3-methyl-triazol-4-yl]methyl]-5-[(3S)-4-isopropyl-3-methyl-piperazin-1-yl]pyridazin-3-one]	127	2.27	10.4
Cn1nnc(-c2ccc(Cl)cc2F)c1Cn1ncc(N2CC3(CCCCO3)C2)cc1=O [Example 95, 2-[[5-(4-chloro-2-fluoro-phenyl)-3-methyl-triazol-4-yl]methyl]-5-(5-oxa-2-azaspiro[3.5]nonan-2-yl)pyridazin-3-one]	58	1.58	11.1
Cn1nnc(-c2ccc(Cl)cc2F)c1Cn1ncc(N2CC(OC(C)(C)C)C2)cc1=O [Example 96, 5-(3-tert-butoxyazetidin-1-yl)-2-[[5-(4-chloro-2-fluoro-phenyl)-3-methyl-triazol-4-yl]methyl]pyridazin-3-one]	54	1.54	20.4
CCn1nnc(-c2ccc(Cl)cc2F)c1Cn1ncc(N2CC(OC(C)(C)C)C2)cc1=O [Example 97, 5-(3-tert-butoxyazetidin-1-yl)-2-[[5-(4-chloro-2-fluoro-phenyl)-3-ethyl-triazol-4-yl]methyl]pyridazin-3-one]	115	2.15	45.1
Cn1nnc(-c2ccc(Cl)cc2F)c1Cn1ncc(N2CC(Oc3cncc(C(F)(F)F)n3)C2)cc1=O [Example 98, 2-[[5-(4-chloro-2-fluoro-phenyl)-3-methyl-triazol-4-yl]methyl]-5-[3-[6-(trifluoro-methyl)pyrazin-2-yl]oxyazetidin-1-yl]pyridazin-3-one]	58	1.58	8
Cc1nccc(OC2CN(c3cnn(Cc4c(-c5ccc(Cl)cc5F)nnn4C)c(=O)c3)C2)n1 [Example 99, 2-[[5-(4-chloro-2-fluoro-phenyl)-3-methyl-triazol-4-yl]methyl]-5-[3-(2-methylpyrimidin-4-yl)oxyazetidin-1-yl]pyridazin-3-one]	86	1.86	4.6
Cn1nnc(-c2ccc(Cl)cc2F)c1Cn1ncc(N2CC(Oc3ccnc(C(F)(F)F)n3)C2)cc1=O [Example 100, 2-[[5-(4-chloro-2-fluoro-phenyl)-3-methyl-triazol-4-yl]methyl]-5-[3-[2-(trifluoromethyl)pyrimidin-4-yl]oxyazetidin-1-yl]pyridazin-3-one]	79	1.79	15.9
CCn1nnc(-c2ccc(Cl)cc2F)c1Cn1ncc(N2CC(Oc3ccc(Cl)nc3)C2)cc1=O [Example 101, 2-[[5-(4-chloro-2-fluoro-phenyl)-3-ethyl-triazol-4-yl]methyl]-5-[3-[(6-chloro-3-pyridyl)oxy]azetidin-1-yl]pyridazin-3-one]	126	2.26	9.2
CCn1nnc(-c2ccc(Cl)cc2F)c1Cn1ncc(N2CC(Oc3cccnn3)C2)cc1=O [Example 102, 2-[[5-(4-chloro-2-fluoro-phenyl)-3-ethyl-triazol-4-yl]methyl]-5-(3-pyridazin-3-yloxyazetidin-1-yl)pyridazin-3-one]	164	2.64	20.2
